From PubChem BioAssay (NCI)
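Five compound concentrations were applied to cells in 96-well plates for 48 hours; endpoints were derived by simple linear interpolation of the resulting dose-response curve. The concentration for full growth arrest is given as TGI.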

Columns and labels:
Test in all cases: NCI tumour cell line growth inhibition, 48 h
[1] = tested on: 786-0 renal
[2] = tested on: A498 renal
[3] = tested on: ACHN renal
[4] = tested on: BT-549 breast
[5] = tested on: CAKI-1 renal
[6] = tested on: CCRF-CEM leukemia
[7] = tested on: COLO 205 colon
[8] = tested on: DU-145 prostate
[9] = tested on: EKVX NSCLC
[10] = tested on: HCT-116 colon
[11] = tested on: HCT-15 colon
[12] = tested on: HL-60(TB) leukemia
[13] = tested on: HOP-62 NSCLC
[14] = tested on: HS 578T breast
[15] = tested on: HT29 colon
[16] = tested on: IGROV1 ovarian
[17] = tested on: K-562 leukemia
[18] = tested on: KM12 colon
[19] = tested on: LOX IMVI melanoma
[20] = tested on: M14 melanoma
[21] = tested on: MALME-3M melanoma
[22] = tested on: MCF7 breast
[23] = tested on: MDA-MB-231 breast
[24] = tested on: MDA-MB-435
[25] = tested on: MDA-N
[26] = tested on: MOLT-4 leukemia
[27] = tested on: NCI-H226 lung
[28] = tested on: NCI-H23 lung
[29] = tested on: NCI-H460 lung
[30] = tested on: NCI/ADR-RES ovarian
[31] = tested on: OVCAR-3 ovarian
[32] = tested on: OVCAR-5 ovarian
[33] = tested on: OVCAR-8 ovarian
[34] = tested on: PC-3 prostate
[35] = tested on: RPMI-8226 leukemia
[36] = tested on: RXF 393 renal
[37] = tested on: SF-268 CNS
[38] = tested on: SF-295 CNS
[39] = tested on: SF-539 CNS
[40] = tested on: SK-MEL-2 melanoma
[41] = tested on: SK-MEL-28 melanoma
[42] = tested on: SK-MEL-5 melanoma
[43] = tested on: SK-OV-3 ovarian
[44] = tested on: SN12C renal
[45] = tested on: SNB-19 CNS
[46] = tested on: SNB-75 CNS
[47] = tested on: SR leukemia
[48] = tested on: SW-620 colon
[49] = tested on: TK-10 renal
[50] = tested on: U251 CNS
[51] = tested on: UACC-257 melanoma
[52] = tested on: UACC-62 melanoma
[53] = tested on: UO-31 renal
[54] = tested on: HOP-92 NSCLC
[55] = tested on: OVCAR-4 ovarian
[56] = tested on: T-47D breast

Measured: TGI

O=C(CN1CCOCC1)c1ccc2[nH]c(=O)oc2c1
> 100 µM: [1] | [2] | [3] | [4] | [5] | [6] | [7] | [8] | [9] | [10] | [11] | [12] | [13] | [14] | [15] | [16] | [17] | [18] | [19] | [20] | [21] | [22] | [23] | [24] | [25] | [26] | [27] | [28] | [29] | [30] | [31] | [32] | [33] | [34] | [35] | [36] | [37] | [38] | [39] | [40] | [41] | [42] | [43] | [44] | [45] | [46] | [47] | [48] | [49] | [50] | [51] | [52] | [53]

O=C(N/N=C\c1ccc([N+](=O)[O-])cc1)Nc1ccccc1
> 100 µM: [2] | [4] | [5] | [6] | [7] | [8] | [10] | [11] | [12] | [13] | [54] | [14] | [15] | [16] | [17] | [18] | [20] | [21] | [22] | [24] | [25] | [26] | [27] | [28] | [29] | [30] | [31] | [55] | [32] | [33] | [34] | [35] | [36] | [38] | [40] | [41] | [42] | [43] | [44] | [45] | [46] | [47] | [48] | [56] | [49] | [50] | [51] | [52] | [53]
